According to patent publication US4758572A, “Antiviral combinations” (Burroughs Wellcome Co., priority 1983, dated 1988):
Read-outs that look alike come from different tables or passages of the source.

System: HSV type1 H29 Strain
Experiment: Yield reduction assay with HSV type 1 H29 strain
Type: cell-based, herpes simplex virus type 1
Details: read-out: ED50 (the source's name)
Source text: (1) Examples of Mutual Enhancement of the Antiherpetic Activities of 2-Acetylpyridine-4-(2-morpholinoethyl)thiosemicarbazone (compound A) and Acyclovir (ACV).
^a Yield reduction assay with HSV type1 H29 Strain

| Compound | EC50 (ACV with addition of 1 μM Compound A) [nM] | EC50 (Addition: none) [nM] | EC50 (Compound A with addition of 0.2 μM ACV) [nM] |
| --- | --- | --- | --- |
| Nc1nc2c(ncn2COCCO)c(=O)[nH]1 [ACV, 9-(2-hydroxyethoxymethyl)guanine] | 20 | 600 |  |
| CC(=NNC(=S)NCCN1CCOCC1)c1ccccn1 [Compound A, 2-Acetylpyridine-4-(2-morpholinoethyl)thiosemicarbazone] |  | 5000 | 700 |
